For data set [1], the target named is T1, PV RdRp WT (Poliovirus type 1, UniProt P03300). It is filed as biochemical.
The next data set concerns the target T7 DdRp WT (Escherichia phage T7, UniProt P00573). It is filed as biochemical.
A further data set concerns the target T7 DdRp K631L (Escherichia phage T7, UniProt P00573, K631L). It is filed as biochemical.
Data set [2] deals with T1, PV RdRp WT. It is filed as biochemical. This is another data set of the same source.
For data set [3], the target named is T1, PV RdRp WT. The note with it: cited from earlier work.
Setting [4] is: read-out: Kd,app (apparent dissociation constant for nucleotide).

Marks after values point to notes of the source that are not given here.

Sequence of T7 DdRp K631L (P00573 whole entry K631L, looked up): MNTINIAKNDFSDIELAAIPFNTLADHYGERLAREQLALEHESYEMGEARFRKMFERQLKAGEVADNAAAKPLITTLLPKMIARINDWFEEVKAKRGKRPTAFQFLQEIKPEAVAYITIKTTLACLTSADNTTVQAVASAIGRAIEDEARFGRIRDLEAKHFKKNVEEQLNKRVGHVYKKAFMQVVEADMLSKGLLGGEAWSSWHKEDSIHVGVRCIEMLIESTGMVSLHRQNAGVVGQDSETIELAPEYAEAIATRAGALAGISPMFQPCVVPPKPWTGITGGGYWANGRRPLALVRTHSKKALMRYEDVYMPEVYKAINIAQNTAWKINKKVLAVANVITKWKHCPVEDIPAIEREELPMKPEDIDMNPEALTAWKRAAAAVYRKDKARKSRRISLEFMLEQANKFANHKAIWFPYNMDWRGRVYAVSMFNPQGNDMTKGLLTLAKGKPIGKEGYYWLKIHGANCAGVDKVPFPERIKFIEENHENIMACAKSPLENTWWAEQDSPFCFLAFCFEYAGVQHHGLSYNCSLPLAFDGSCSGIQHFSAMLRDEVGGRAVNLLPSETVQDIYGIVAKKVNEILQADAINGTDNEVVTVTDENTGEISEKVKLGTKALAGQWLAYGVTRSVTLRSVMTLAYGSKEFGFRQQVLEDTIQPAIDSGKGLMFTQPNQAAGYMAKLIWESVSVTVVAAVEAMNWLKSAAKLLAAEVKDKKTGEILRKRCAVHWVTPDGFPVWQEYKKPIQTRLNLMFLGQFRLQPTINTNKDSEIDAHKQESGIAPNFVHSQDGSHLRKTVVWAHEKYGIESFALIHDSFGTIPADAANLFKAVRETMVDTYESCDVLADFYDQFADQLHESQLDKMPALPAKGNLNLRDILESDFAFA
T1 sequence (P03300 1749-2209 limits assumed): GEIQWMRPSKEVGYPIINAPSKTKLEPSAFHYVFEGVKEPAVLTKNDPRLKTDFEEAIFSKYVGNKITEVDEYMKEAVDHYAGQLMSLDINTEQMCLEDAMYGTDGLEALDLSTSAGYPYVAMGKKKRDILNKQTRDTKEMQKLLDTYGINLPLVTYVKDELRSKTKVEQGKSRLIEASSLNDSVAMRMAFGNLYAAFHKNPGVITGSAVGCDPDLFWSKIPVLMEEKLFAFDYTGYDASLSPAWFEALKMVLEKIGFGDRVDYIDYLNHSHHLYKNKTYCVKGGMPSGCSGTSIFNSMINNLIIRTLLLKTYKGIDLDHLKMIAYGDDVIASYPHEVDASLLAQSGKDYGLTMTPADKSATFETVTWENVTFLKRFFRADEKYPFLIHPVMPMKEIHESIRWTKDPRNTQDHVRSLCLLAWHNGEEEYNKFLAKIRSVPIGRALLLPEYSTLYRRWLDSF
Sequence of T7 DdRp WT (P00573 whole entry, looked up): as the sequence (P00573 whole entry K631L, looked up) above, with L631K counted along it

As to `Nc1ncnc2c1ncn2[C@@H]1O[C@H](COP(=O)(O)OP(=O)(O)OP(=O)(O)O)[C@@H](O)[C@H]1O` [ATP], the “PI (proton inventory: proton-transfer model that best fits)” value at PV RdRp WT [1] and at T7 DdRp WT was 2 throughout. Also, the “SDKIE (solvent deuterium kinetic isotope effect)” value at PV RdRp WT [1] is 3.0 ± 0.3; at T7 DdRp WT it was 5.2 ± 0.5; on T7 DdRp K631L, 2.6 ± 0.5 ^c. The “kpol (maximal rate constant for nucleotide incorporation)” value on PV RdRp WT [1] stood at 50 ± 5 s⁻¹; on T7 DdRp WT (pH 7.5) it was 60 ± 5 s⁻¹; at T7 DdRp K631L it was 0.6 ± 0.1 s⁻¹. Further, the Kd on PV RdRp WT [1] (setting [4]) was 200 ± 20 µM; on T7 DdRp WT (read-out: Kd,app (apparent dissociation constant for nucleotide), pH 7.5), 300 ± 30 µM; at T7 DdRp K631L (setting [4]), 50000 µM. Also, at T7 DdRp K631L, the “reduction in kpol relative to wt” value is given as 100 fold. Also, at PV RdRp WT [2], the SDKIE is listed as 7 ± 1. On PV RdRp WT [3], the “pKa from pH rate profile of kpol, second ionizable group” value is reported as 10.5.

These data come from PMC2728625 (Nature structural & molecular biology, 2009).
